Test results reported in patent US8455226B2, “Method for producing metal nanoparticles” (Janssen Pharmaceutica N.V., priority 2006, dated 2013).

Legend:
[1] = tested on: some bacteria; conditions: cited from earlier work
[2] = tested on: Escherichia coli; assay: Antimicrobial activity on a solid growth medium for Escherichia coli (Example 4); format: cell-based; conditions: 24 hours at 30° C., plated 2×10^6 CFU/mL
Description: 100 mL of a silver suspension with an Ag concentration of 5 mM, in the form of nanosilver deposited on Lactobacillus fermentum biomass as obtained in example 1, was plated onto a solidified growth medium for culturing Escherichia coli (Luria Bertani Agar). As a control, 100 mL of a solution of 5 mM AgNO3 in sterile milliQ water with 0.1 N NaOH were plated on the same growth medium. This setting agreed with a total amount of 0.05 mg Ag per agar plate, or 11 mg Ag per m^2 of total surface area. This experiment was repeated with twofold the latter concentrations, i.e. with 0.11 mg Ag per agar plate or 22 mg Ag per m^2 of total surface area.
By plating these silver suspensions, a homogeneous layer of Ag(I)NO3, or nano-Ag respectively, was applied onto the solidified growth media.
After pre-treating the solidified growth medium in this way, 100 μL of a 2×10^6 CFU/mL Escherichia coli suspension in physiological solution (8.5 g NaCl/L in sterile water) was plated on the pre-treated agar plates. The plates were then incubated during 24 hours at 30° C. and colonies were counted. The count results are illustrated by FIG. 1. At nano-Ag concentrations of 11 mg Ag/m^2 and 22 mg Ag/m^2, no viable cells of E. coli could be detected on the treated solid growth medium (<detection limit (D.L.)=1×10^1 CFU/ml). […]

| Compound | concentration known to inhibit the growth of some bacteria [1] [mg/L] | viable cells of E. coli on treated solid growth medium ([2]; 11 mg Ag/m^2) | viable cells of E. coli on treated solid growth medium ([2]; 22 mg Ag/m^2) |
| --- | --- | --- | --- |
| OO [Hydrogen peroxide] | 25 | – | – |
| O=[N+]([O-])[O-].[Ag+] [Ag(I)NO3, AgNO3] | – | 4×10^2 CFU/ml | 1×10^2 CFU/ml |
